In ChEMBL document CHEMBL1201862, “PubChem BioAssay data set” (2004):
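All cell lines were grown in 96-well plates and treated with compound for 48 hours. At the GI50, growth is halved.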 The source made the active and inactive calls. No stated cut-off is given here; in the data, active = GI50 up to about 1.1 µM and inactive = higher.

Legend:
Assay in all cases: NCI-60 cell line screen, 48 h
HCT-15 = tested on: HCT-15
EKVX = tested on: EKVX
DU-145 = tested on: DU-145
HCC 2998 = tested on: HCC 2998
CCRF-CEM = tested on: CCRF-CEM
SK-MEL-5 = tested on: SK-MEL-5
OVCAR-5 = tested on: OVCAR-5
T47D = tested on: T47D
HOP-92 = tested on: HOP-92
Hs-578T = tested on: Hs-578T
U-251 = tested on: U-251
UO-31 = tested on: UO-31
SNB-19 = tested on: SNB-19
LOX IMVI = tested on: LOX IMVI
BT-549 = tested on: BT-549
KM12 = tested on: KM12
NCI/ADR-RES = tested on: NCI/ADR-RES
RXF 393 = tested on: RXF 393
UACC-257 = tested on: UACC-257
Malme-3M = tested on: Malme-3M

Structure (SMILES) | GI50 (HCT-15) [µM] | GI50 (EKVX) | GI50 (DU-145) | GI50 (HCC 2998) | GI50 (CCRF-CEM) | GI50 (SK-MEL-5) | GI50 (OVCAR-5) | GI50 (T47D) | GI50 (HOP-92) | GI50 (Hs-578T) | GI50 (U-251) | GI50 (UO-31) | GI50 (SNB-19) | GI50 (LOX IMVI) | GI50 (BT-549) | GI50 (KM12) | GI50 (NCI/ADR-RES) | GI50 (RXF 393) | GI50 (UACC-257) | GI50 (Malme-3M)
CC[P+](C#Cc1ccccc1)(c1ccccc1)c1ccccc1 | 3.19 | 2.26 µM (inactive) | 3.46 µM (inactive) | 1.97 µM (inactive) | 0.358 µM (active) | 1.22 µM (inactive) | 4.06 µM (inactive) | 2.18 µM (inactive) | 1.92 µM (inactive) | 2.86 µM (inactive) | 0.562 µM (active) | 6.93 µM (inactive) | 5.92 µM (inactive) | 1.82 µM (inactive) | 1.31 µM (inactive) | 1.22 µM (inactive) | 38.9 µM (inactive) | 0.966 µM (active) | 1.21 µM (inactive) | 1.59 µM (inactive)
O=C(O)CCc1ccc(-c2ccccc2)[nH]1 | > 100 | > 100 µM (inactive) | > 100 µM (inactive) | > 100 µM (inactive) | 70.6 µM (inactive) | > 100 µM (inactive) | > 100 µM (inactive) | > 100 µM (inactive) | > 100 µM (inactive) | > 100 µM (inactive) | > 100 µM (inactive) | > 100 µM (inactive) | > 100 µM (inactive) | > 100 µM (inactive) | > 100 µM (inactive) | > 100 µM (inactive) | > 100 µM (inactive) | > 100 µM (inactive) | > 100 µM (inactive) | > 100 µM (inactive)
N=C(N)NS(=O)(=O)c1ccc(NC(=O)c2ccc3nc4ccccc4c(N)c3c2)cc1 | > 100 | > 100 µM (inactive) | > 100 µM (inactive) | > 100 µM (inactive) | > 100 µM (inactive) | > 100 µM (inactive) | > 100 µM (inactive) | > 100 µM (inactive) | > 100 µM (inactive) | > 100 µM (inactive) | > 100 µM (inactive) | > 100 µM (inactive) | > 100 µM (inactive) | > 100 µM (inactive) | > 100 µM (inactive) | 74.6 µM (inactive) | > 100 µM (inactive) | > 100 µM (inactive) | > 100 µM (inactive) | > 100 µM (inactive)
N#[N+]c1cc2c(cc1Br)-c1ccccc1C2 | > 100 | 24.5 µM (inactive) | > 100 µM (inactive) | 85.5 µM (inactive) | 0.586 µM (active) | 48.5 µM (inactive) | > 100 µM (inactive) | > 100 µM (inactive) | 11.9 µM (inactive) | > 100 µM (inactive) | 82.2 µM (inactive) | > 100 µM (inactive) | 71.3 µM (inactive) | 91.6 µM (inactive) | 70 µM (inactive) | > 100 µM (inactive) | > 100 µM (inactive) | 78.3 µM (inactive) | 23.5 µM (inactive) | 40 µM (inactive)
CCc1c[n+]2c(cc1C1=CN3c4ccccc4[C@]45CCN6C/C(=C/CO)[C@H](C[C@H]64)[C@@H]([C@@H]1O)[C@H]35)-c1[nH]c3ccccc3c1CC2 | > 50 | > 50 µM (inactive) | > 50 µM (inactive) | > 50 µM (inactive) | > 50 µM (inactive) | > 50 µM (inactive) | > 50 µM (inactive) | > 50 µM (inactive) | > 50 µM (inactive) | > 50 µM (inactive) | > 50 µM (inactive) | > 50 µM (inactive) | > 50 µM (inactive) | > 50 µM (inactive) | > 50 µM (inactive) | > 50 µM (inactive) | > 50 µM (inactive) | > 50 µM (inactive) | > 50 µM (inactive) | > 50 µM (inactive)
CC(=O)NC1C(OCc2ccccc2)OC(CO)C(O)C1OCC(=O)N[C@@H](C)C(=O)N[C@H](CCC(=O)NCCCCNc1c2ccccc2nc2cccc([N+](=O)[O-])c12)C(N)=O (stereo not given in full) | 1.97 | 2.07 µM (inactive) | 1.91 µM (inactive) | 0.682 µM (active) | 4.11 µM (inactive) | 0.516 µM (active) | 3.56 µM (inactive) | 1.61 µM (inactive) | 0.748 µM (active) | 3.1 µM (inactive) | 1.87 µM (inactive) | 2.43 µM (inactive) | 4.53 µM (inactive) | 2.39 µM (inactive) | 2.74 µM (inactive) | 1.83 µM (inactive) | 16.7 µM (inactive) | 1.53 µM (inactive) | 2.13 µM (inactive) | 1.34 µM (inactive)
CN(C)CCCn1c(Cn2nc3ccccc3n2)nc2cc(C(F)(F)F)ccc21 | 30.1 | 28.3 µM (inactive) | 29.7 µM (inactive) | 7.6 µM (inactive) | 13.2 µM (inactive) | 16.6 µM (inactive) | > 100 µM (inactive) | 15.2 µM (inactive) | 8.71 µM (inactive) | 36.2 µM (inactive) | 26.4 µM (inactive) | 10.5 µM (inactive) | 50.7 µM (inactive) | 16.9 µM (inactive) | 16.8 µM (inactive) | 22.8 µM (inactive) | 23.4 µM (inactive) | 22.1 µM (inactive) | 16.8 µM (inactive) | 11.6 µM (inactive)
COP(C)(=O)C(Cc1c[nH]c2ccccc12)NC(=O)OCc1ccccc1 (stereo not given) | > 100 | > 100 µM (inactive) | > 100 µM (inactive) | > 100 µM (inactive) | > 100 µM (inactive) | > 100 µM (inactive) | > 100 µM (inactive) | > 100 µM (inactive) | > 100 µM (inactive) | > 100 µM (inactive) | > 100 µM (inactive) | > 100 µM (inactive) | > 100 µM (inactive) | > 100 µM (inactive) | > 100 µM (inactive) | > 100 µM (inactive) | > 100 µM (inactive) | > 100 µM (inactive) | > 100 µM (inactive) | > 100 µM (inactive)
CCN(CC)C(=O)COc1cc2c(O)c3c(O)c(C)c4c(c13)C(=O)C(C)(OC=CC(OC)C(C)C(OC(C)=O)C(C)C(O)C(C)C(O)C(C)C=CC=C(C)C(=O)N2)O4 (stereo not given) | > 100 | > 100 µM (inactive) | > 100 µM (inactive) | > 100 µM (inactive) | > 100 µM (inactive) | > 100 µM (inactive) | > 100 µM (inactive) | > 100 µM (inactive) | > 100 µM (inactive) | > 100 µM (inactive) | > 100 µM (inactive) | > 100 µM (inactive) | > 100 µM (inactive) | > 100 µM (inactive) | > 100 µM (inactive) | > 100 µM (inactive) | > 100 µM (inactive) | > 100 µM (inactive) | > 100 µM (inactive) | > 100 µM (inactive)
COC(=O)C#CC1(O)C=CC(=O)C=C1 | 0.248 | 4.12 µM (inactive) | 1.38 µM (inactive) | 2.54 µM (inactive) | 0.106 µM (active) | 1.72 µM (inactive) | 1.42 µM (inactive) | 0.583 µM (active) | 0.891 µM (active) | 2.79 µM (inactive) | 0.841 µM (active) | 0.889 µM (active) | 4.63 µM (inactive) | 0.275 µM (active) | 1.01 µM (active) | 0.843 µM (active) | 0.525 µM (active) | 1.58 µM (inactive) | 1.15 µM (inactive) | 2 µM (inactive)
COc1c(C)c(OC)c(C(=O)CC(C)C)c(OC)c1C | 37.1 | > 100 µM (inactive) | > 100 µM (inactive) | > 100 µM (inactive) | > 100 µM (inactive) | 40.3 µM (inactive) | > 100 µM (inactive) | 68.1 µM (inactive) | > 100 µM (inactive) | > 100 µM (inactive) | > 100 µM (inactive) | 49.9 µM (inactive) | 24.9 µM (inactive) | 62.7 µM (inactive) | > 100 µM (inactive) | 74 µM (inactive) | 52.6 µM (inactive) | > 100 µM (inactive) | > 100 µM (inactive) | > 100 µM (inactive)
CC1=C2CC(C)(C)/C=C\C(=O)/C(C)=C\C3=C[C@H](C)C[C@]3(O2)C1=O | 0.627 | 1.87 µM (inactive) | 4.67 µM (inactive) | 4.85 µM (inactive) | 0.138 µM (active) | 1.48 µM (inactive) | 1.32 µM (inactive) | 0.544 µM (active) | 1.09 µM (active) | 2.26 µM (inactive) | 3.86 µM (inactive) | 1.18 µM (inactive) | 17.2 µM (inactive) | 0.741 µM (active) | 0.518 µM (active) | 2.21 µM (inactive) | 0.537 µM (active) | 0.597 µM (active) | 1.14 µM (inactive) | 0.897 µM (active)
CNc1nc2n(CCO)c(-c3ccccc3)c(-c3ccccc3)nc-2c(=O)n1 | > 50 | > 50 µM (inactive) | > 50 µM (inactive) | > 50 µM (inactive) | > 50 µM (inactive) | > 50 µM (inactive) | > 50 µM (inactive) | > 50 µM (inactive) | > 50 µM (inactive) | > 50 µM (inactive) | > 50 µM (inactive) | > 50 µM (inactive) | > 50 µM (inactive) | > 50 µM (inactive) | > 50 µM (inactive) | > 50 µM (inactive) | > 50 µM (inactive) | > 50 µM (inactive) | > 50 µM (inactive) | > 50 µM (inactive)
